From patent US20090012069A1, “Novel Antidiabetic Compounds” (priority 2004, published 2009)

Key:
Swiss albino mice = test: Serum triglyceride lowering activity in Swiss albino mice; assay type: in vivo; conditions: male Swiss albino mice, 10 mg/kg/day orally for 6 days, serum 1 hour after dose on 6th day, fed state
Procedure: i) Serum Triglyceride and Total Cholesterol Lowering Activity in Swiss Albino Mice:
Male Swiss albino mice (SAM) were bred in Zydus animal house. All these animals were maintained under 12 hour light and dark cycle at 25±1° C. Animals were given standard laboratory chow (NIN, Hyderabad, India) and water ad libitum. SAM of 20-30 g body weight range was used. The protocol approved by Institutional Animal Ethics Committee is being used.
The test compounds were administered orally to Swiss albino mice at 0.001 to 50 mg/kg/day dose for 6 days. The compound was administered after suspending it in 0.25% CMC or dissolving it in water, when compound is water-soluble. Control mice were treated with vehicle (0.25% of Carboxymethyl cellulose; dose 10 ml/kg).
The blood samples were collected on 0th day and in fed state 1 hour after drug administration on 6th day of the treatment. The blood was collected in non heparinised capillary and the serum was analyzed for triglyceride and total cholesterol (Wieland, O. Methods of Enzymatic analysis. Bergermeyer, H., O., Ed., 1963. 211-214; Trinder, P. Ann. Clin. Biochem. 1969. 6: 24-27). Measurement of serum triglyceride and total cholesterol was done using commercial kits (Zydus-Cadila, Pathline, Ahmedabad, India).
(§1) Percentage reduction in triglycerides/total cholesterol were calculated according to the formula:
[formula] • OC=Zero day control group value OT=Zero day treated group value • TC=Test day control group TT=Test day treated group

[1] = tested on: Hamster of Syrian golden stain; test: Serum triglyceride lowering activity in HF-HC diet fed Hamster of Syrian golden stain; assay type: in vivo; conditions: HF-HC diet hamsters, 3 mg/kg/day oral gavage, non-fasted serum on day 14, 1 hr after dose
Description: ii) Serum triglyceride and total cholesterol lowering activity in Hamster of Syrian golden stain:
Male and Female Hamster of Syrian golden stain were bred in Zydus animal house. All these animals were maintained under 12-hour light and dark cycle at 22±3 degree C. The protocol approved by Institutional Animal Ethics Committee is being used. Animals of 3-12 weeks age (80-150 gm body weight) were taken for study. Near the end of the acclimatization period, animals judged to be suitable for testing will bee weighed. […] Other animals were put on HF-HC (High fat and high cholesterol) diet for 14 days.
Each animal received a single dose of ZY compounds at 0.001 to 50 mg/kg/ as a carbomethoxy cellulose or polyethylene glycol in the evening administered as an oral gavage daily for 15 days. On day 14, after 1 hr of dose administration, non-fasted blood samples were collected in non heparinized capillary from animals for determination of total cholesterol (TC), triglyceride (TG) (Wieland, O. Methods of Enzymatic analysis. Bergermeyer, H., O., Ed., 1963. 211-214; Trinder, P. Ann. Clin. Biochem. 1969. 6: 24-27). Measurement of serum triglyceride and total cholesterol was done using commercial kits (Pointe Scientific.Inc.USA.) And on day 14 night all animals will be kept for fasting for 12-16 hours. On day 15, after 1 hour of dose administration fasted blood samples will be collected from animals for determination of high density lipoprotein (HDL), and low density lipoprotein (LDL) in serum. The animals will then be euthanized by carbon-dioxide asphyxia (and cervical dislocation, if necessary) and heart, kidney and liver will be resected and weighed.
as §1
Percentage reduction(%)=(TT−TC)/TC*100
TC=Test day control group TT=Test day treated group.

hPPARγ = molecular target: T1, hPPARγ (Homo sapiens, UniProt P37231); test: In vitro hPPAR gamma activity (in-house protocol); assay type: cell-based; conditions: read-out: EC50 (PPAR gamma)
T1 sequence (P37231 1-505): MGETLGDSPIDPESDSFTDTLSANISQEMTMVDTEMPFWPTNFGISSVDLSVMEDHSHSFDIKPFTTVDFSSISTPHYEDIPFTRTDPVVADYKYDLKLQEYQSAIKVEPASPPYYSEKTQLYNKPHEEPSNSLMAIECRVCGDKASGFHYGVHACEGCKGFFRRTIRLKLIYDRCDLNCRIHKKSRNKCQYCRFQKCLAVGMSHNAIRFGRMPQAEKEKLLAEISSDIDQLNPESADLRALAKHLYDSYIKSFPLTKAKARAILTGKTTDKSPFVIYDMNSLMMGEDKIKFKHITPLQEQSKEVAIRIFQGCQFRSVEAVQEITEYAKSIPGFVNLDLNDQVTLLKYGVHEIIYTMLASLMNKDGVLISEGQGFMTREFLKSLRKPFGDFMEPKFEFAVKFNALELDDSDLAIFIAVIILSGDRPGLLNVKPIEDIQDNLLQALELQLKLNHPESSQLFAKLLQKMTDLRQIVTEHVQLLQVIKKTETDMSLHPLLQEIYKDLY
Procedure: (§2) In vitro hPPAR α & hPPARγ activities were determined as per in-house protocols and the results of representative compounds are provided below as a proof of the efficacies of the novel class of compounds disclosed above.

hPPAR α = molecular target: T2, hPPAR α (Homo sapiens, UniProt Q07869); test: In vitro hPPAR alpha activity (in-house protocol); assay type: cell-based; conditions: read-out: EC50 (PPAR alpha)
T2 sequence (Q07869 1-468): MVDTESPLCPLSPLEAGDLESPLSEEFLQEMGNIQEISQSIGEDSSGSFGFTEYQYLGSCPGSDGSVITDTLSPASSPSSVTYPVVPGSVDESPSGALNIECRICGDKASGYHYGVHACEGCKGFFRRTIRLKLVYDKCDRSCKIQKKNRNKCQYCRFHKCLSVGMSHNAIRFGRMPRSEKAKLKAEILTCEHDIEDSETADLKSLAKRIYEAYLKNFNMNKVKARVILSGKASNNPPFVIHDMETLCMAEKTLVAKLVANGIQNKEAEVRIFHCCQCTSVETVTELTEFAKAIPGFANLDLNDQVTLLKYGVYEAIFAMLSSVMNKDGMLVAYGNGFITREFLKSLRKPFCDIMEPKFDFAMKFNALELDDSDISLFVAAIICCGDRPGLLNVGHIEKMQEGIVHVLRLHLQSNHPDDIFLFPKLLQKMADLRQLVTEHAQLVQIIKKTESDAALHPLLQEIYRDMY
Procedure: as §2

## Cc1oc(-c2ccccc2)nc1CCOc1ccc(CC2COC(C)(C(=O)O)OC2)cc1 (stereo not drawn) [Example 61, 2-Methyl-5-{4-[2-(5-methyl-2-phenyl-oxazol-4-yl)-ethoxy]-benzyl}-[1,3]dioxane-2-carboxylic acid]
Swiss albino mice
  % Triglyceride lowering: 23%
[1]
  % Triglyceride lowering: 30%
hPPARγ
  EC50: 96 nM
hPPAR α
  EC50: 1090 nM

## Cn1c(COc2ccc(CC3COC(C)(C(=O)O)OC3)cc2)nc2ccccc2c1=O (stereo not drawn) [Example 66, 2-Methyl-5-[4-(3-methyl-4-oxo-3,4-dihydro-quinazolin-2-ylmethoxy)-benzyl]-[1,3]dioxane-2-carboxylic acid]
Swiss albino mice
  % Triglyceride lowering: 40%
hPPARγ
  EC50: 15 nM
hPPAR α
  EC50: 72 nM

## CC1(C(=O)O)OCC(Cc2ccc(OCCn3ccc4ccccc43)cc2)CO1 (stereo not drawn) [Example 70, 5-cis-[4-(2-Indol-1-yl-ethoxy)-benzyl]-2-methyl-[1,3]dioxane-1-carboxylic acid]
hPPARγ
  EC50: 19.8 nM
hPPAR α
  EC50: 600 nM

## CC1(C(=O)O)OCC(c2ccc(OCCc3ccc(OS(C)(=O)=O)cc3)cc2)CO1 (stereo not drawn) [Example 96, 5-cis-{4-[2-(4-Methanesulfonyloxy-phenyl)-ethoxy]-phenyl}-2-methyl-[1,3]dioxane-2-carboxylic acid]
[1]
  % Triglyceride lowering: 41%

## Cc1ccc(-c2nc(CCOc3ccc(C4COC(C)(C(=O)O)OC4)cc3)c(C)o2)cc1 (stereo not drawn) [Example 100, 2-Methyl-5-trans-{4-[2-(5-methyl-2-p-tolyl-oxazol-4-yl)-ethoxy]-phenyl}-[1,3]dioxane-2-carboxylic acid]
Swiss albino mice
  % Triglyceride lowering: 44%

## CC1(C(=O)O)OCC(c2ccc(OCCOc3ccc(Oc4ccccc4)cc3)cc2)CO1 (stereo not drawn) [Example 106, 2-Methyl-5-cis-{4-[2-(4-phenoxy-phenoxy)-ethoxy]-phenyl}-[1,3]dioxane-2-carboxylic acid]
[1]
  % Triglyceride lowering: 50%
